Results on one compound are retold here after paper PMC10657444, “Design and evaluation of tadpole-like conformational antimicrobial peptides” (Communications Biology, 2023).

For one data set, the system named is MRSA 3393. The data set is classed as cell-based, Staphylococcus aureus. The settings on record: 3393. The source says: (§1) Bacteria were cultivated in Luria-Bertani (LB) broth.
A further data set has as its system MRSA ATCC 43300. The format is cell-based, Staphylococcus aureus. The settings on record: ATCC 43300.
Source text: as §1

The next data set relates to MRSA USA 300. The data set is classed as cell-based, Staphylococcus aureus.
Source text: as §1

The test system of another data set is MRSA. The data set is classed as cell-based, Staphylococcus aureus.
Source text: as §1

The next data set deals with E. coli ATCC 25922. The format is cell-based, Escherichia coli.
Source text: as §1

For another data set, the system named is E. coli S. The format is cell-based, Escherichia coli.
Source text: as §1

In the next data set the test system is A. baumannii 1318. The format is cell-based, Acinetobacter baumannii.
Source text: as §1

The subject of another data set is A. baumannii 1337. The data set is classed as cell-based, Acinetobacter baumannii.
Source text: as §1

A further data set has as its system K. pneumoniae 3026. The data set is classed as cell-based, Klebsiella pneumoniae.
Source text: as §1

Data set [1] concerns K. pneumoniae ATCC 700603. The data set is classed as cell-based, Klebsiella pneumoniae.
Source text: as §1

The next data set is described as follows: MTT cytotoxicity assay. The data set is classed as cell-based, human. The settings on record: human.
For the next data set, the system named is HEK293T cells. Briefly: MTT cytotoxicity assay. The format is cell-based, human.
The test system of another data set is sheep red blood cells. Briefly: Hemolysis assay. The settings on record: red cells of sheep, 1 h.
The next data set deals with Acinetobacter baumannii. The data set is classed as cell-based.
Source text: as §1

Where [2] appears, read: HEK293T cells, OD450, cytotoxicity (Fig 2a), replicates.

≈ marks a conversion by molar mass, not a printed value. Residues, ends and D or L forms follow the SMILES beside them.

With `CC[C@H](C)[C@H](NC(=O)[C@H](CCCNC(=N)N)NC(=O)[C@H](CCCNC(=N)N)NC(=O)[C@H](CC(C)C)NC(=O)[C@@H](N)Cc1ccccc1)C(=O)N[C@@H](Cc1ccccc1)C(=O)N[C@@H](Cc1ccccc1)C(=O)N[C@@H](Cc1ccccc1)C(=O)N[C@@H](Cc1ccccc1)C(N)=O` [HT1] (H-FLRRIFFFF-NH2), the “MIC Gram+ MRSA 3393” value against MRSA 3393 was 6.25 µM (≈ 8.07 µg/mL). The “MIC Gram+ MRSA ATCC 43300” value in the data set on MRSA ATCC 43300 was determined as 3.13 µM (≈ 4.04 µg/mL). The “MIC Gram+ MRSA USA 300” value against MRSA USA 300 worked out at 6.25 µM (≈ 8.07 µg/mL). In the data set on MRSA, the “MICs against MRSA” value lay in the range of 3.13 to 6.25 µM. Moreover, the “MIC Gram- E. coli ATCC 25922” value against E. coli ATCC 25922 amounted to 25 µM (≈ 32.3 µg/mL). In the data set on E. coli S, the “MIC Gram- E. coli S” value is 12.5 µM (≈ 16.1 µg/mL). Besides, the “MIC Gram- A. b 1318” value against A. baumannii 1318 was determined as 25 µM (≈ 32.3 µg/mL). Also, in the data set with A. baumannii 1337, the “MIC Gram- A. b 1337” value stood at 25 µM (≈ 32.3 µg/mL). For the same compound, the “MIC Gram- K. p 3026” value against K. pneumoniae 3026 was over 100 µM. Besides, the “MIC Gram- K. p ATCC 700603” value in [1] was over 100 µM. The compound further displayed an IC50 at 72 h in the data set “MTT cytotoxicity assay” of 2700 nM. In the data set “MTT cytotoxicity assay” (setting [2]), this compound gave a viability at 72 h, 0.39 µM of 93.6%; a viability at 72 h, 0.78 µM of 87.3%; a viability at 72 h, 1.57 µM of 78%; a viability at 72 h, 3.13 µM of 30.5%. Besides, in the data set “MTT cytotoxicity assay” (setting [2]), the viability at 72 h, 12.5 µM worked out at 0.557% and the viability at 72 h, 25 µM amounted to 1.3%. Moreover, in the data set with HEK293T cells, the “toxicity / cytotoxicity against HEK293T cells (in words)” value is “high toxicity”. Further, the “HC10 (concentration inducing 10% hemolysis)” value with sheep red blood cells is 25.0 µM. Further, in the data set on Acinetobacter baumannii, the “MIC against Gram-negative Acinetobacter baumannii” value was 25 µM (≈ 32.3 µg/mL).
